ChEMBL document CHEMBL5113376, “Antimalarial application of quinones: A recent update” (Eur J Med Chem, 2021)
Values after ≈ are worked out from the molar mass of the structure shown.

Columns and labels:
Plasmodium falciparum [1] = assay: Antimalarial activity against Plasmodium falciparum 3D7 infected in human erythrocytes; format: functional, organism-based; details: 3D7, Erythrocyte
Plasmodium berghei [2] = assay: In vivo antiplasmodial activity against Chloroquine susceptible Plasmodium berghei ANKA infected in CD-1 mouse assessed as decrease in parasitaemia at 30 to 50 mg/kg/day, ip relative to control; format: functional; set-up: scale not given: the % may be the effect or the level left; details: dose 30-50 mg/kg/day
Plasmodium falciparum [3] = assay: Antimalarial activity against Plasmodium falciparum Dd2 treated for 48 hrs followed by hypoxanthine addition; format: functional, organism-based; details: Dd2, 48 h
Plasmodium falciparum [4] = assay: Antimalarial activity against Plasmodium falciparum W2 incubated for 24 hrs; format: functional, organism-based; details: for IC50: Plasmodium falciparum, W2, 24 h
Plasmodium falciparum [5] = assay: Antiplasmodial activity against Plasmodium falciparum Dd2 incubated for 48 hrs; format: functional, organism-based; details: Dd2, 48 h
Plasmodium falciparum [6] = assay: Antiplasmodial activity against Plasmodium falciparum 3D7 incubated for 48 hrs; format: functional, organism-based; details: 3D7, 48 h
Plasmodium falciparum [7] = assay: Antiplasmodial activity against Chloroquine resistant Plasmodium falciparum FcB1 incubated for 48 hrs; format: functional, organism-based; details: FcB1, 48 h
Plasmodium falciparum [8] = assay: Antiplasmodial activity against chloroquine sensitive Plasmodium falciparum F-32 Tanzania incubated for 48 hrs; format: functional, organism-based
Plasmodium berghei [9] = assay: In vivo antiplasmodial activity against Plasmodium berghei infected in Swiss mouse assessed as reduction of parasitaemia at 100 mg/kg, po for 3 days; format: functional; set-up: scale not given: the % may be the effect or the level left; details: time 3 day
Plasmodium falciparum [10] = assay: Antimalarial activity against Chloroquine resistant blood stage Plasmodium falciparum clone W2; format: functional, organism-based
Plasmodium falciparum [11] = assay: Antimalarial activity against chloroquine sensitive Plasmodium falciparum D10 incubated for 72 hrs by spectrophotometric analysis; format: functional, organism-based; details: D10, 72 h
Plasmodium falciparum [12] = assay: Antimalarial activity against chloroquine resistant Plasmodium falciparum W2 incubated for 72 hrs by spectrophotometric analysis; format: functional, organism-based; details: W2, 72 h
[13] = Cytotoxicity against HMEC-1 cells treated for 72 hrs by MTT assay; format: toxicity, cell-based; details: human
Plasmodium falciparum [14] = assay: Antimalarial activity against Plasmodium falciparum K14 incubated for 42 hrs in presence of 3H-hypoxanthine by top-count microbeta counter analysis; format: functional, organism-based
A549 = assay: Cytotoxicity against human A549 cells incubated for 24 hrs by MTT assay; format: functional
HepG2 = assay: Cytotoxicity against human HepG2 cells incubated for 24 hrs by MTT assay; format: functional
[15] = Cytotoxicity against human MRC5 cells incubated for 24 hrs by MTT assay; format: toxicity, cell-based
[16] = Cytotoxicity against […] LLC-PK1 cells incubated for 24 hrs by MTT assay; format: toxicity, cell-based, Sus scrofa; details: pig
Plasmodium berghei [17] = assay: In vivo antiplasmodial activity against Plasmodium berghei ANKA infected in CD-1 mouse assessed as decrease in parasitaemia at 50 mg/kg, ip measured after 4 days relative to control; format: functional; set-up: scale not given: the % may be the effect or the level left; details: time 4 day
Plasmodium berghei [18] = assay: In vivo plasmodial activity against Plasmodium berghei ANKA infected in Swiss mouse assessed as survival rate at 50 mg/kg, ip for 4 days after infection relative to control; format: functional; details: time 4 day
Plasmodium falciparum [19] = assay: Antiplasmodial activity against Chloroquine resistant Plasmodium falciparum FcB1 incubated for 48 hrs by SYBR green I based fluorescence assay; format: functional, organism-based; details: FcB1, 48 h
[20] = Cytotoxicity against African green monkey Vero cells; format: toxicity, cell-based; details: chlorocebus sabaeus
Plasmodium berghei [21] = assay: In vivo antiplasmodial activity against Plasmodium berghei ANKA infected in CD-1 mouse assessed as decrease in parasitaemia at 50 mg/kg, ip measured after 7 days relative to control; format: functional; set-up: scale not given: the % may be the effect or the level left; details: time 7 day
Plasmodium falciparum [22] = assay: Antiplasmodial activity against Chloroquine resistant plasmodium falciparum FCR-3; format: functional, organism-based
Plasmodium falciparum [23] = assay: Antiplasmodial activity against Plasmodium falciparum K1; format: functional, organism-based
HEK293 = assay: Cytotoxicity against HEK293 cells incubated for 48 hrs by MTT assay; format: functional; details: Homo sapiens
Plasmodium falciparum [24] = assay: Antimalarial activity against Plasmodium falciparum Dd2 by 96-well microtitre plate method based scintillation counting analysis; format: functional, organism-based

Q: For O=C1C(O)=C(Cc2ccc([N+](=O)[O-])cc2)C(=O)c2ccccc21, which IC50 (Plasmodium falciparum [1]) is on record?
A: 13700 nM

Q: What does the source list for CC1=C(Cc2ccc(O)cc2)C(=O)c2ccccc2C1=O?
A: Activity (Plasmodium berghei [2]): 20.7%; IC50 (Plasmodium falciparum [3]): 55 nM

Q: With CC1(C)OC2=C(CC1I)C(=O)c1ccccc1C2=O (stereo unspecified) as the compound, how does the IC50 (Plasmodium falciparum [4]) read?
A: 19500 nM

Q: Which results are given for CCCC/C=C/C1=C(O)C(=O)c2ccccc2C1=O?
A: IC50 (Plasmodium falciparum [5]): 220 nM; IC50 (Plasmodium falciparum [6]): 2400 nM

Q: For COc1cc2c(cc1O)[C@H]1COC3=C(C(=O)c4ccccc4C3=O)[C@H]1O2, which IC50 (Plasmodium falciparum [7]) is on record?
A: ≥ 10000 nM

Q: Which IC50 (Plasmodium falciparum [8]) does the source give for COc1ccc(-n2cc(COC3=CC(=O)c4ccccc4C3=O)nn2)cc1F here?
A: 800 nM

Q: With CCCN(CCC)CC1=C(O)C(=O)c2ccccc2C1=O as the compound, how does the Activity (Plasmodium berghei [9]) read?
A: <=63%

Q: What about the IC50 (Plasmodium falciparum [10]) of the same compound?
A: 1900 nM

Q: Which IC50 (Plasmodium falciparum [11]) does the source give for CCC1=C(OC)C(=O)C2=C(C1=O)S(=O)(=O)CCN2 here?
A: 2450 nM

Q: And the IC50 (Plasmodium falciparum [12])?
A: 2370 nM

Q: What about the IC50 at 72 h [13] of the same compound?
A: > 100000 nM

Q: With CN(C)c1ccc(N2C(=O)C(Oc3ccc(Cl)cc3)C2c2ccc3c(c2)C(=O)c2ccccc2C3=O)cc1 (stereo unspecified) as the compound, how does the IC50 (Plasmodium falciparum [14]) read?
A: 21000 nM

Q: With COc1cc2c(cc1O)CO[C@@H]1C3=C(OC[C@H]21)C(=O)c1ccccc1C3=O as the compound, how does the IC50 (Plasmodium falciparum [7]) read?
A: 40 nM

Q: What does the source list for CC1(C)CCC2=C(O1)C(=O)c1ccccc1C2=O [ALPHA-LAPACHONE]?
A: CC50 (A549): 2090 nM; CC50 (HepG2): 2090 nM; CC50 at 24 h [15]: 2090 nM; CC50 at 24 h [16]: 2090 nM; IC50 (Plasmodium falciparum [4]): 15800 nM

Q: Which IC50 (Plasmodium falciparum [7]) does the source give for COc1cc2c(cc1O)[C@H]1COC3=C(C(=O)c4ccccc4C3=O)[C@H]1OC2 here?
A: 30 nM

Q: For CC(=O)OC1=C(CC=C(C)C)C(=O)c2ccccc2C1=O, which IC50 (Plasmodium falciparum [4]) is on record?
A: 2300 nM

Q: And the IC100 (Plasmodium falciparum [4]; time 24 hrs)?
A: 4.7 µM

Q: For Cc1cc2c(o1)C(=O)c1ccccc1C2=O, which IC50 (Plasmodium falciparum [5]) is on record?
A: 1200 nM

Q: And the IC50 (Plasmodium falciparum [6])?
A: 1500 nM

Q: With CC1=C(Cc2ccc(Br)cc2)C(=O)c2ccccc2C1=O as the compound, how does the Activity (Plasmodium berghei [17]) read?
A: 35.8%

Q: What about the IC50 (Plasmodium falciparum [3]) of the same compound?
A: 46 nM

Q: With COc1cccc2c1C1=C(C(=O)C2=O)C(C)(C)C(C)O1 (stereo unspecified) as the compound, how does the Activity (Plasmodium berghei [18]) read?
A: 80%

Q: And the IC50 (Plasmodium falciparum [19])?
A: 630 nM

Q: Which results are given for CC1=C(Cc2ccc(C(C)(C)C)cc2)C(=O)c2ccccc2C1=O?
A: Activity (Plasmodium berghei [2]): 20.7%; IC50 (Plasmodium falciparum [3]): 54 nM

Q: With CC1=C(Cc2ccc(C(F)(F)F)cc2)C(=O)c2ccccc2C1=O as the compound, how does the Activity (Plasmodium berghei [2]) read?
A: 20.7%

Q: With CC(C)(C)CC1=C(O)C(=O)c2ccccc2C1=O as the compound, how does the IC50 (Plasmodium falciparum [1]) read?
A: 15200 nM

Q: For CCN(CC)CCCC(C)Nc1ccnc2cc(Cl)ccc12 (stereo unspecified) [CHLOROQUINE], which CC50 [20] is on record?
A: 227000 nM

Q: And the Activity (Plasmodium berghei [17])?
A: 86.3%

Q: And the Activity (Plasmodium berghei [21])?
A: 76.8%

Q: Which IC50 (Plasmodium falciparum [5]) does the source give for CCc1cc2c(o1)C(=O)c1ccccc1C2=O here?
A: 1800 nM

Q: What about the IC50 (Plasmodium falciparum [6]) of the same compound?
A: 400 nM

Q: Which IC50 (Plasmodium falciparum [22]) does the source give for COC(=O)/C(=C\CC/C(C)=C/CC/C(C)=C/CC1=CC(=O)C=C(C)C1=O)CCC=C(C)C here?
A: 8200 nM

Q: For CCC1=C(NC(=O)C(C)(C)C)C(=O)C2=C(NCCS2(=O)=O)C1=O, which IC50 (Plasmodium falciparum [11]) is on record?
A: 390 nM

Q: And the IC50 (Plasmodium falciparum [12])?
A: 580 nM

Q: And the IC50 at 72 h [13]?
A: 1600 nM

Q: With COC1=C(Cc2ccccc2)C(=O)C2=C(NCCS2(=O)=O)C1=O as the compound, how does the IC50 (Plasmodium falciparum [11]) read?
A: 600 nM

Q: And the IC50 (Plasmodium falciparum [12])?
A: 700 nM

Q: What about the IC50 at 72 h [13] of the same compound?
A: 17600 nM

Q: For O=C(O)c1ccc2c(n1)C(=O)C1=C(C2=O)S(=O)(=O)CCN1 [ACIDIATHIAZONE A], which IC50 (Plasmodium falciparum [23]) is on record?
A: 3300 nM

Q: With O=C1c2ccccc2C(=O)c2cc(C3C(Oc4ccc(Cl)cc4)C(=O)N3c3cccc4ccccc34)ccc21 (stereo unspecified) as the compound, how does the IC50 (Plasmodium falciparum [14]) read?
A: 45000 nM

Q: With CC(C)=CCC1=C(O)C(=O)c2ccccc2C1=O [LAPACHOL] as the compound, how does the CC50 (A549) read?
A: ≥ 285000 nM

Q: What about the CC50 (HepG2) of the same compound?
A: ≥ 285000 nM

Q: And the CC50 at 24 h [15]?
A: ≥ 285000 nM

Q: What about the CC50 at 24 h [16] of the same compound?
A: ≥ 285000 nM

Q: And the IC50 (Plasmodium falciparum [4])?
A: 80000 nM

Q: Which Activity (Plasmodium berghei [18]) does the source give for COc1ccc2c(c1)C(=O)C(=O)C1=C2OC(C)C1(C)C (stereo unspecified) here?
A: 100%

Q: And the IC50 (Plasmodium falciparum [19])?
A: 845 nM

Q: With COc1ccc(CC2=C(O)C(=O)c3ccccc3C2=O)cc1 as the compound, how does the IC50 (Plasmodium falciparum [1]) read?
A: 16000 nM

Q: Which results are given for O=C1C(O)=C(Cc2ccccc2)C(=O)c2ccccc21?
A: CC50 (HEK293): 54600 nM; IC50 (Plasmodium falciparum [1]): 443 nM

Q: For COc1ccc(N2C(=O)C(Oc3ccccc3)C2c2ccc3c(c2)C(=O)c2ccccc2C3=O)cc1 (stereo unspecified), which IC50 (Plasmodium falciparum [14]) is on record?
A: 27000 nM

Q: For CC(C)=CCC1=C(O)C(=O)c2c(O)ccc(O)c2C1=O, which IC50 (Plasmodium falciparum [24]) is on record?
A: 0.8 µg/mL (≈ 2.92 µM)

Q: For O=C1C(O)=C(CN2CC3CCC2CC3)C(=O)c2ccccc21, which Activity (Plasmodium berghei [9]) is on record?
A: <=63%

Q: And the IC50 (Plasmodium falciparum [10])?
A: 1300 nM
